This note sets out measurements from ChEMBL document CHEMBL1131381, “Design and synthesis of potent, selective inhibitors of endothelin-converting enzyme” (J Med Chem, 1998).

Assay [1] has as its target T1, Neprilysin (Rattus norvegicus) (UniProt P07861).
T1 sequence (whole entry): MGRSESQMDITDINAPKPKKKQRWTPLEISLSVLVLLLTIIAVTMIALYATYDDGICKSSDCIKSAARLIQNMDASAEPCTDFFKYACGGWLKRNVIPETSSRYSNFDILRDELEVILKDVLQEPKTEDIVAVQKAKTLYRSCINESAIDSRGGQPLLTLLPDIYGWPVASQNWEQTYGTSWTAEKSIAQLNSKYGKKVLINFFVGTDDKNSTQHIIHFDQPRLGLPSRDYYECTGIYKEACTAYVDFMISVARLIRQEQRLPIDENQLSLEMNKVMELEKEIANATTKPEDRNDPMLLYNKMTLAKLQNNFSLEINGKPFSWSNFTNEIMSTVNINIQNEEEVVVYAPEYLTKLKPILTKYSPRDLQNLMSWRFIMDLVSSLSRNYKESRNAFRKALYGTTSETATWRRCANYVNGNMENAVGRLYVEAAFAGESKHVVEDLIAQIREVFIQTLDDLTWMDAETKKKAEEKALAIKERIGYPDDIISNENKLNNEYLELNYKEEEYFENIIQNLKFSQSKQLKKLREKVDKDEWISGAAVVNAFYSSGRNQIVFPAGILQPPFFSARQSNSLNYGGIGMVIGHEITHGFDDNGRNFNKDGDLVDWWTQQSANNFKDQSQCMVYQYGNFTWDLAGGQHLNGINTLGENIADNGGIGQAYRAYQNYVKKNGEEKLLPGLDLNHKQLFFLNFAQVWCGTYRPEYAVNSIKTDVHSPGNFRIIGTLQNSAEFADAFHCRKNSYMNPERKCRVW
As to the kind of experiment: Inhibitory activity (10 uM) against rat neutral endopeptidase (NEP).

Assay [2] addresses T2, Endothelin-converting enzyme 1 (Homo sapiens) (UniProt P42892).
T2 sequence (whole entry): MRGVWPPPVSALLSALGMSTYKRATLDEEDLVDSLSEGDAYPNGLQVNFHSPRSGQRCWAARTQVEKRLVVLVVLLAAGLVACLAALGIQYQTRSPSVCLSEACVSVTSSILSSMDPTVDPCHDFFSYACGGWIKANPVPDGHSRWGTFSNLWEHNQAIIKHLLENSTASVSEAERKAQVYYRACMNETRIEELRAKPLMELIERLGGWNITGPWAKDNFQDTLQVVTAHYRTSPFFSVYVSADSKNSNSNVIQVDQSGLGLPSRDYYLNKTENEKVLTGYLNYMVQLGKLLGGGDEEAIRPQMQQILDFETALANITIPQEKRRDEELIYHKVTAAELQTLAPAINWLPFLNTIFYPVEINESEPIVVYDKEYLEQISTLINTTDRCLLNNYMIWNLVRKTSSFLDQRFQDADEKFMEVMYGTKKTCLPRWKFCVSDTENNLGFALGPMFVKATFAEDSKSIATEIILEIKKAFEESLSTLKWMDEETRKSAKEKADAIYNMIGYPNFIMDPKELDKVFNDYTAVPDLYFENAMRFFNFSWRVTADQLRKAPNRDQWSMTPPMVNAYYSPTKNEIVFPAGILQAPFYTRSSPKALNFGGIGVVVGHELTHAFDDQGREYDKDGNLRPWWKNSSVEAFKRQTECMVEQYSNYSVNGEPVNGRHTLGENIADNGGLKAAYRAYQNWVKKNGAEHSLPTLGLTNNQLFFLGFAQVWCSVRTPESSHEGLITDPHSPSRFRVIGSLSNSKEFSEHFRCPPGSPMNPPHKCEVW
The experiment in a line: Inhibitory activity (1 uM) was assessed on CHO cells expressing in recombinant human Endothelin-converting enzyme 1 (ECE-1).

By inhibition is commonly meant the drop in the measured response relative to a control, in per cent. As to `COc1ccccc1C#CC[C@H](NCP(=O)(O)O)C(=O)N[C@@H](CC(C)C)C(=O)O`, the inhibition in assay [1] was determined as 12%; in assay [2], 0%.
